Test results taken from patent publication US11091494B2, “Crystal form of acalabrutinib and preparation method and use thereof” (Crystal Pharmaceutical (Suzhou) Co., Ltd., priority 2018, dated 2021).

Columns and labels:
[1] = cited from earlier work; for Highest water content: water content varies in different conditions
[2] = Compressibility (tensile strength of compressed tablet); type: physicochemical; settings: about 80 mg, φ6 mm round tooling, compressed at 10 kN
Description: (§1) Approximately 80 mg of Form A and Form I in WO2017002095A1 were weighed into the dies of a φ6 mm round tooling, compressed at 10 kN manually, then stored in a desiccator for 24 hours until complete elastic recovery. Radial crushing force (hardness, H) was tested with an intelligent tablet hardness tester. Diameter (D) and thickness (L) were tested with a caliper. Tensile strength of the powder that with different hardness was calculated with the following formula: T=2H/πDL. Under a certain force, the greater the tensile strength, the better the compressibility.
as §1, with “Form D” for “Form A”, “manually, and” for “manually,”, “powder” for “powder that”
as §1, with “of Form F and Form” for “of Form A and Form”, “kN manually, and then stored” for “kN manually, then stored”, “tested with caliper. Tensile” for “tested with a caliper. Tensile”, “the powder with different” for “the powder that with different”
Approximately 80 mg of Form G and Form I of WO2017002095A1 were weighed into the dies of a φ6 mm round tooling, compressed at 10 kN manually, and then stored in a desiccator for 24 hours until complete elastic recovery. Radial crushing force (hardness, H)) was tested with an intelligent tablet hardness tester. Diameter (D) and thickness (L) were tested with caliper. Tensile strength of the powder with different hardness was calculated with the following formula: T=2H/πDL. Under a certain force, the greater the tensile strength, the better the compressibility.
as §1, with “of Form CS15 and Form” for “of Form A and Form”, “kN manually, and then stored” for “kN manually, then stored”, “tested with caliper. Tensile” for “tested with a caliper. Tensile”, “the powder with different” for “the powder that with different”

[3] = Stability of crystalline form on storage, checked by XRPD; type: physicochemical; settings: for Solid form: 2 months, XRPD
Description: Approximately 10 mg of Form A of the present disclosure was weighed and stored at different conditions of 25° C./60% RH in open dish, 25° C./60% RH in closed dish, 40° C./75% RH in open dish, and 40° C./75% RH in closed dish. Crystalline forms were checked by XRPD.
Approximately 10 mg of Form D of the present disclosure was weighed and stored at different conditions of 25° C./60% RH in closed dish, 25° C./60% RH in open dish, 40° C./75% RH in closed dish. Crystalline form was checked by XRPD.
Approximately 10 mg of Form F of the present disclosure was weighed and stored at different conditions of 25° C./60% RH in closed dish, 25° C./60% RH in open dish, and 40° C./75% RH in closed dish, 40° C./75% RH in open dish. Crystalline forms were checked by XRPD.
Approximately 10 mg of Form G of the present disclosure was weighed and stored at 25° C./60% RH in closed dish. Crystalline forms were checked by XRPD.
Approximately 10 mg of Form CS15 of the present disclosure was weighed and stored at different conditions of 25° C./60% RH in open dish, 25° C./60% RH in closed dish. Crystalline forms were checked by XRPD.

[4] = Intrinsic dissolution rate in pH 2.5 HCl/NaCl aqueous solution; type: physicochemical; settings: for Cumulative dissolution / IDR (intrinsic dissolution rate): pH 2.5 HCl/NaCl, 37° C.; for Cumulative dissolution: 0.5 cm^2 pellet; for IDR (intrinsic dissolution rate): slope over 0-45 minutes
Description: (§2) Approximately 200 mg of Form A and Form I in WO2017002095A1 were added into the die, compressed at 10 kN and held for 1 minute to obtain a pellet having a surface area of 0.5 cm^2. The whole tool with the pellet was transferred to a dissolution apparatus to test the intrinsic dissolution rate. The slope (mg/min) was calculated according to the data within 0-45 minutes. Intrinsic dissolution rate (IDR, mg/min/cm^2) was further calculated according to the slope.
as §2, with “Form D” for “Form A”
as §2, with “Form F” for “Form A”, “intrinsic dissolution.” for “intrinsic dissolution rate.”
as §2, with “Form G” for “Form A”, “intrinsic dissolution.” for “intrinsic dissolution rate.”
as §2, with “Form CS15” for “Form A”, “intrinsic dissolution.” for “intrinsic dissolution rate.”

[5] = Adhesiveness (amount of material sticking to the punch); type: physicochemical; settings: about 30 mg, φ8 mm round tooling, 10 kN, compression repeated twice
Description: (§3) Approximately 30 mg of Form A and Form I in WO2017002095A1 were weighed, added into the dies of a φ8 mm round tooling, compressed at 10 kN and held for about 30 s. The amount of material sticking to the punch was weighed. The compression was repeated twice and the cumulative amount and average amount of material sticking to the punch during the compression were recorded.
as §3, with “Form F” for “Form A”
as §3, with “Form G” for “Form A”

| Compound | Highest water content [1] [%] | Tensile strength [2] | Cumulative dissolution ([4]; 0 min) [mg] | Cumulative dissolution ([4]; 5 min) [mg] | Cumulative dissolution ([4]; 10 min) [mg] | Cumulative dissolution ([4]; 15 min) [mg] | Cumulative dissolution ([4]; 20 min) [mg] | Cumulative dissolution ([4]; 25 min) [mg] | Cumulative dissolution ([4]; 30 min) [mg] | Cumulative dissolution ([4]; 35 min) [mg] | Cumulative dissolution ([4]; 45 min) [mg] | IDR (intrinsic dissolution rate) [4] [mg/min/cm^2] | Stability of the crystalline form ([1]; as disclosed in WO2017002095A1) | further results |
| --- | --- | --- | --- | --- | --- | --- | --- | --- | --- | --- | --- | --- | --- | --- |
| CC#CC(=O)N1CCC[C@H]1c1nc(-c2ccc(C(=O)Nc3ccccn3)cc2)c2c(N)nccn12 [Crystalline form II, (S)-4-(8-amino-3-(1-(but-2-ynoyl)pyrrolidin-2-yl)imidazo[1,5-a]pyrazin-1-yl)-N-(pyridin-2-yl)benzamide] | 10 | – | – | – | – | – | – | – | – | – | – | – | – | Flowability ([1]; as disclosed in WO2017002095A1): poor |
| CC#CC(=O)N1CCC[C@H]1c1nc(-c2ccc(C(=O)Nc3ccccn3)cc2)c2c(N)nccn12 [Form D, (S)-4-(8-amino-3-(1-(but-2-ynoyl)pyrrolidin-2-yl)imidazo[1,5-a]pyrazin-1-yl)-N-(pyridin-2-yl)benzamide] | – | 0.83 MPa | 0.00 | 0.70 | 1.73 | 2.82 | 3.57 | 4.77 | 6.26 | 7.36 | 9.72 | 0.4112 | – | Time kept stable (crystalline state doesn't change) ([3]; 25° C./60% RH in closed dish): at least 2 months; Solid form ([3]; 25° C./60% RH in closed dish): Form D; Chemical purity on storage ([3]; 25° C./60% RH in open and closed dishes, at least 2 months): remains substantially unchanged; Time kept stable (crystalline state doesn't change) ([3]; 25° C./60% RH in open dish): at least 2 months; Solid form ([3]; 25° C./60% RH in open dish): Form D; Time kept stable (crystalline state doesn't change) ([3]; 40° C./75% RH in closed dish): at least 2 months; Solid form ([3]; 40° C./75% RH in closed dish): Form D; IDR relative to that of Form I in WO2017002095A1 ([4]; pH 2.5 HCl/NaCl solution): 1.1 times |
| CC#CC(=O)N1CCC[C@H]1c1nc(-c2ccc(C(=O)Nc3ccccn3)cc2)c2c(N)nccn12 [Crystalline form III, (S)-4-(8-amino-3-(1-(but-2-ynoyl)pyrrolidin-2-yl)imidazo[1,5-a]pyrazin-1-yl)-N-(pyridin-2-yl)benzamide] | 8 | – | – | – | – | – | – | – | – | – | – | – | unstable | – |
| CC#CC(=O)N1CCC[C@H]1c1nc(-c2ccc(C(=O)Nc3ccccn3)cc2)c2c(N)nccn12 [Form I in WO2017002095A1, (S)-4-(8-amino-3-(1-(but-2-ynoyl)pyrrolidin-2-yl)imidazo[1,5-a]pyrazin-1-yl)-N-(pyridin-2-yl)benzamide, reference compound] | – | Unable to be compressed | 0.00 | 0.92 | 1.64 | 2.81 | 3.66 | 4.62 | 5.58 | 6.40 | 8.16 | 0.3656 | – | Average amount (material sticking to the punch) [5]: 45 µg; Cumulative amount (material sticking to the punch) [5]: 90 µg |
| CC#CC(=O)N1CCC[C@H]1c1nc(-c2ccc(C(=O)Nc3ccccn3)cc2)c2c(N)nccn12 [Crystalline form IV, (S)-4-(8-amino-3-(1-(but-2-ynoyl)pyrrolidin-2-yl)imidazo[1,5-a]pyrazin-1-yl)-N-(pyridin-2-yl)benzamide] | – | – | – | – | – | – | – | – | – | – | – | – | unstable | – |
